Test results taken from patent US9789159B2, “Diagnosis and treatment of prostate cancer” (The Research Foundation for The State University of New York, priority 2011, dated 2017).

Assays:
LNCaP cell line = conditions: VEGF 10 ng/mL or 10 nM DHT for 3, 6, 12 and 24 hr, Western blot densitometry, P<0.05 vs control
Experimental: In this example, to determine the responsiveness of Hexim-1 to androgen and VEGF in the epithelial prostate LNCap cell line, LNCap cells were treated with VEGF (10 ng/mL) or 10 nM dihydrotestosterone (DHT) for 3, 6, 12 and 24 hours, with the change in expression of Hexim-1 protein evaluated by Western blot.
FIG. 2A illustrates the epithelial prostate LNCaP cell line which was treated with VEGF (10 ng/ml) or 10 nM dihydrotestosterone (DHT) 10 nM for 3, 6, 12 and 24 hr. Protein extracts were obtained from each time point and the changes in the protein expression of Hexim-1, p-Akt and GAPDH evaluated by Western blot. The histogram indicates the ratio between p-AKT and GAPDH and the ratio of Hexim-1 to GAPDH as obtained by densitometry analysis of the Western blots. Data are expressed as means±SE of 4 independent experiments.

androgen receptor (AR) = androgen receptor (AR) (UniProt P19091)
PC3 cells = conditions: androgen independent PC3 cells; 10 nM DHT for indicated times; Western blot
Experimental: In FIG. 2B, PC3 cells were treated with 10 nM DHT for indicated times, cells were collected and cellular extracts were prepared and analyzed for Hexim-1 and GAPDH. The histogram indicates a ratio between Hexim-1 and GAPDH. Data are expressed as means±SE of 3 independent experiments.

UniProt P19091, sequence (P19091 whole entry): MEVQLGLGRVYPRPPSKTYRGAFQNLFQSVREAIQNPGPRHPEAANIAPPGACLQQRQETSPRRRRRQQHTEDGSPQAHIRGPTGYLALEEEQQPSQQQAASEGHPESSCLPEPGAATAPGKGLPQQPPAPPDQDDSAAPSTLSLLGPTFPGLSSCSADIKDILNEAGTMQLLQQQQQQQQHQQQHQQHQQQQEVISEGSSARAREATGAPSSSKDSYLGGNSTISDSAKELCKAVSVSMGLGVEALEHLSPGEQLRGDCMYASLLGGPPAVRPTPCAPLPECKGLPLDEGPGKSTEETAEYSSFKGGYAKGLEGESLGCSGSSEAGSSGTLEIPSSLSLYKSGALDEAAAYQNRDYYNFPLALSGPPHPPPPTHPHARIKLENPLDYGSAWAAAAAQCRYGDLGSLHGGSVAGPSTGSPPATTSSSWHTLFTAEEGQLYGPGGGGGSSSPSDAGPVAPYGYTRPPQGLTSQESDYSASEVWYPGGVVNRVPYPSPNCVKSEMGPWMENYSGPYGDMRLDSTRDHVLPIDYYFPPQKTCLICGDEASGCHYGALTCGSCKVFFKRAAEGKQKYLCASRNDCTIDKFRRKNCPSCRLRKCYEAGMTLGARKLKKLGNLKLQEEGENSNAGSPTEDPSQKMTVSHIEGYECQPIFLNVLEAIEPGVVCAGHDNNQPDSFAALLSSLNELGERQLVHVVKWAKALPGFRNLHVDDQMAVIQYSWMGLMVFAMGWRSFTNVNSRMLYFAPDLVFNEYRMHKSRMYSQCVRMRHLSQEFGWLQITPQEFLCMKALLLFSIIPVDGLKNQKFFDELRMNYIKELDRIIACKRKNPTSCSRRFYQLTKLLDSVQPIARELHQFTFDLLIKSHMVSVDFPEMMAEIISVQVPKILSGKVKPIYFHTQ

| Compound | Hexim-1 protein levels (ratio of Hexim-1 to GAPDH) (LNCaP cell line) | p-Akt levels (ratio between p-AKT and GAPDH) (LNCaP cell line) | serine-81 phosphorylation of the androgen receptor (Western blot after immunoprecipitation) (androgen receptor (AR)) | Hexim-1 levels (ratio between Hexim-1 and GAPDH) (PC3 cells) |
| --- | --- | --- | --- | --- |
| VEGF | induced | correlated with the increased Hexim-1 expression |  |  |
| cyclin dependent kinase 9 (Cdk9) |  |  | the serine phosphorylation of AR is significantly increased |  |
| C[C@]12CCC(=O)C[C@@H]1CC[C@@H]1[C@@H]2CC[C@]2(C)[C@@H](O)CC[C@@H]12 [DHT, dihydrotestosterone] | induced | correlated with the increased Hexim-1 expression |  | not changed |
